Source: US20170112775A1, “SITU SELF-ASSEMBLING PRO-NANOPARTICLE COMPOSITIONS AND METHODS OF PREPARATION AND USE THEREOF” (University of North Texas Health Science Center, priority 2015, published 2017)
Structures can show the parent of a compound that is named as a salt. Where two headings read alike, the source gives them in different places.

Experiments:
[1] = system: DU145 sensitive prostate cancer cell line; assay: MTT cytotoxicity, DU145 sensitive; format: cell-based; conditions: Homo sapiens, 72 hr
Protocol: (§1) The cytotoxicity of DTX MT NPs was tested in PC3 and DU145 sensitive and resistant cell using MTT [3-(4,5-dimethylthiazol-2-yl)-2,5-diphenyltetrazolium bromide] assay. Cells were seeded into 96-well plates with a density of 7,000 cells/well and incubated at 37° C. for 24 hr under 5% CO2. Following that, cells were treated with a drug equivalent concentration ranging from 0.5-10,000 nM for DTX, DTX MT NPs, and blank NPs. Due to low water solubility, DTX was dissolved with DMSO. After 72 hr of incubation, the medium was removed from each well and replaced with 90 μL of DMEM medium without phenol red and 10 μL of MTT (5 mg/mL in PBS). The plates were incubated at 37° C. with 5% CO2 for 4 hr. […] The absorbance was measured at a test wavelength of 570 nm and a reference wavelength of 650 nm in a microplate reader (Synergy H1 hybrid Multi-Mode Microplate Reader)
(§2) The cytotoxicity of CUR MT NPs was tested in DU145 and PC-3 human prostate cancer cell lines using MTT [3-(4,5-dimethylthiazol-2-yl)-2,5-diphenyltetrazolium bromide] assay. […] After 72 hr of incubation, the medium was removed from each well and replaced with 90 μL of DMEM medium without phenol read and MTT (10 μL of 5 mg/mL in PBS). […] The absorbance was measured at a test wavelength of 570 nm and a reference wavelength of 650 nm in a microplate reader (Beckman Coulter, Inc.).

[2] = system: PC3 resistant prostate cancer cell line; assay: MTT cytotoxicity, PC3 resistant; format: cell-based; conditions: Homo sapiens, 72 hr
Protocol: as §1, §2

[3] = system: DU145 resistant prostate cancer cell line; assay: MTT cytotoxicity, DU145 resistant; format: cell-based, human; conditions: for IC50: Homo sapiens, 72 hr, MTT
Protocol: The cytotoxicity of DTX MT NPs was tested in PC3 and DU145 sensitive and resistant cell using MTT [3-(4,5-dimethylthiazol-2-yl)-2,5-diphenyltetrazolium bromide] assay. Cells were seeded into 96-well plates with a density of 7,000 cells/well and incubated at 37° C. for 24 hr under 5% CO2. Following that, cells were treated with a drug equivalent concentration ranging from 0.5-10,000 nM for DTX, DTX MT NPs, and blank NPs. Due to low water solubility, DTX was dissolved with DMSO. After 72 hr of incubation, the medium was removed from each well and replaced with 90 μL of DMEM medium without phenol red and 10 μL of MTT (5 mg/mL in PBS). The plates were incubated at 37° C. with 5% CO2 for 4 hr. Formazan produced by mitochondria enzymes of living cells was dissolved in 150 μL of isopropanol containing 0.04 N HCl for 5 min. The absorbance was measured at a test wavelength of 570 nm and a reference wavelength of 650 nm in a microplate reader (Synergy H1 hybrid Multi-Mode Microplate Reader)
The cytotoxicity of CUR MT NPs was tested in DU145 and PC-3 human prostate cancer cell lines using MTT [3-(4,5-dimethylthiazol-2-yl)-2,5-diphenyltetrazolium bromide] assay. Cells were seeded into 96-well plates at 7,000 cells/well and incubated 37° C. for 24 hr under 5% CO2. After overnight incubation, cells were treated with drug concentration ranging from 0-27 μM for CUR, CUR MT NPs, and blank NPs. Due to low water solubility, CUR was dissolved with DMSO. After 72 hr of incubation, the medium was removed from each well and replaced with 90 μL of DMEM medium without phenol read and MTT (10 μL of 5 mg/mL in PBS). After incubating for 4 hr at 37° C. with 5% CO2, 0.04 N HCl/isopropanol was added to each well and incubated for 5 min to dissolve formazan crystals formed by viable cells. The absorbance was measured at a test wavelength of 570 nm and a reference wavelength of 650 nm in a microplate reader (Beckman Coulter, Inc.).

[4] = system: PC3 sensitive prostate cancer cell line; assay: MTT cytotoxicity, PC3 sensitive; format: cell-based; conditions: Homo sapiens, 72 hr
Protocol: as §1, §2

[5] = Solubility screening in oils and surfactants; format: physicochemical
Protocol: These studies were performed to test the solubility of RTV in oils and surfactants. Briefly, oils and surfactants were accurately weighed into glass vials. Certain amounts of […] were added into the glass vials. The vials were stirred on the hot plate maintained at 65° C. for 3 min. The solubilization was monitored by eyes and the drug solubility (w/w) was estimated.
These studies were performed to test the solubility in oils and surfactants. The solubility of DTX was determined in oils (oleic acid, Migloyl 812, Kollisolv® MCT70, Kolliwax® GMSI, Imwitor® 960, and Labrafac) and surfactants (TPGS, Poloxamer 188, Tween 20, and Tween 80). Oils and surfactants were accurately weighed into glass vials. Excess amounts of DTX were added into glass vials containing vehicles. The vials were stirred on the hot plate maintained at 65° C. for 3 min. The drug solubility (w/w) was calculated.
These studies were performed to test the solubility in oils and surfactants. The solubility of CUR was determined in oils (Migloyl 812 N, Migloyl 829, Imwitor 491, Kollisolv MCT70, labrafac, Imwitor 900K, Imwitor 960 and Campriltol 888) and surfactants (Tween 20, Tween 80, Labrasol, Poloxamer 188, TPGS and Gelucire 44/14). Oils and surfactants were accurately weighed into glass vials. Excess amounts of CUR were added into glass vials containing vehicles. The vials were stirred on the hot plate maintained at 65° C. for 3 min. The drug solubility (w/w) was calculated.

[6] = cited from earlier work
[7] = PK study after subcutaneous injection; format: in vivo, Sprague Dawley rats; conditions: male, Sprague Dawley, rat, plasma, sc, after 6 days, one subcutaneous injection of LPV/RTV ISNPs
Protocol: Animal studies were performed in compliance with guidelines set by the University of North Texas Health Science Center Institutional Animal Care and Use Committees. Rats were housed in groups of 2 under a 12-h light/dark cycle with free access to food and water for 1 week before use. Sprague Dawley rats (males, 276-300 g, n=4) were purchased from Charles River Laboratories (Wilmington, Mass.). Pharmacokinetic studies were conducted to evaluate the pharmacokinetic profiles of LPV and RTV from LPV/RTV ISNPs. Rats were treated with 100 ul of LPV/RTV ISNPs to provide 100 mg/kg of LPV by subcutaneous injection. After the injection, the inventor collected the blood at 0, 1, 2, 3, 5, 6, 24 hours and 2, 3, 4, 5, 6 days. The blood was immediately centrifuged at 3400 rpm for 5 min at 4° C., and 100 ul of plasma samples were transferred to a new tube and stored at −20° C. until further analysis within 3 weeks. LPV and RTV concentrations in the plasma were determined by liquid chromatography-mass spectrometry (LC-MS, an Agilent G6460 Triple Quad LC-MS system) using a previously reported method.

cancer cells = conditions: cited from earlier work

Q: With `CC(=O)O[C@@]12CO[C@@H]1C[C@H](O)[C@@]1(C)C(=O)[C@H](O)C3=C(C)[C@@H](OC(=O)[C@H](O)[C@@H](NC(=O)OC(C)(C)C)c4ccccc4)C[C@@](O)([C@@H](OC(=O)c4ccccc4)[C@H]21)C3(C)C` [docetaxel] as the molecule, how does the IC50 ([1]; DU-145, DU145 sensitive) read?
A: 0.0068 ± 0.0005 µM

Q: And the IC50 ([2]; PC3 resistance)?
A: 0.0753 ± 0.0027 µM

Q: And the IC50 ([3]; DU-145, DU145 resistance)?
A: 0.87 ± 0.0854 µM

Q: And the IC50 ([4]; PC3 sensitive)?
A: 0.007 ± 0.0004 µM

Q: What about the “Solubility (w/w)” value ([5]; in Imwitor 960K, 65° C.) of the same molecule?
A: 0.053 w/w

Q: What about the “Solubility (w/w)” value ([5]; in Kollisolv MCT70, 65° C.) of the same molecule?
A: 0.038 w/w

Q: What about the “Solubility (w/w)” value ([5]; in Kolliwax GMS I, 65° C.) of the same molecule?
A: 0.025 w/w

Q: And the “Solubility (w/w)” value ([5]; in Labrafac, 65° C.)?
A: 0.022 w/w

Q: What about the “Solubility (w/w)” value ([5]; in Migloyl 812, 65° C.) of the same molecule?
A: 0.079 w/w

Q: And the “Solubility (w/w)” value ([5]; in Oleic acid, 65° C.)?
A: 0.066 w/w

Q: And the “Solubility (w/w)” value ([5]; in Poloxamer 188, 65° C.)?
A: 0.019 w/w

Q: What about the “Solubility (w/w)” value ([5]; in TPGS, 65° C.) of the same molecule?
A: 0.008 w/w

Q: And the “Solubility (w/w)” value ([5]; in Tween 20, 65° C.)?
A: 0.052 w/w

Q: And the “Solubility (w/w)” value ([5]; in Tween 80, 65° C.)?
A: 0.082 w/w

Q: For `CC(C)OC(=O)OCOP(=O)(CO[C@H](C)Cn1cnc2c(N)ncnc21)OCOC(=O)OC(C)C` [TDF, tenofovir disoproxil fumarate], which Bioavailability ([6]; oral) is on record?
A: 25%

Q: For `CC(C)c1nc(CN(C)C(=O)N[C@H](C(=O)N[C@@H](Cc2ccccc2)C[C@H](O)[C@H](Cc2ccccc2)NC(=O)OCc2cncs2)C(C)C)cs1` [ritonavir], which concentration at 6 days ([7]; read-out: RTV Ctrough) is on record?
A: ~50 ng/mL

Q: With `CN(Cc1cnc2nc(N)nc(N)c2n1)c1ccc(C(=O)N[C@@H](CCC(=O)O)C(=O)O)cc1` [MTX, methotrexate] as the molecule, how does the Bioavailability ([6]; oral) read?
A: 30%

Q: For `Cc1cccc(C)c1OCC(=O)N[C@@H](Cc1ccccc1)[C@@H](O)C[C@H](Cc1ccccc1)NC(=O)[C@H](C(C)C)N1CCCNC1=O` [lopinavir], which concentration at 6 days ([7]; 100 mg/kg of LPV, read-out: LPV Ctrough) is on record?
A: > 160 ng/mL

Q: And the Estimated solubility ([5]; in Brij 78, 65° C.)?
A: 0.4725 mg/mg

Q: What about the Estimated solubility ([5]; in Glyceryl behenate, 65° C.) of the same molecule?
A: 0.0744 mg/mg

Q: What about the Estimated solubility ([5]; in Killiphor P 188/Poloxamer F68, 65° C.) of the same molecule?
A: 0.3431 mg/mg

Q: And the Estimated solubility ([5]; in Kollisolv MCT70, 65° C.)?
A: 0.0779 mg/mg

Q: What about the Estimated solubility ([5]; in Kolliwax GMS I, 65° C.) of the same molecule?
A: 0.5846 mg/mg

Q: What about the Estimated solubility ([5]; in Miglyo812, 65° C.) of the same molecule?
A: 0.0703 mg/mg

Q: What about the Estimated solubility ([5]; in Oleic acid, 65° C.) of the same molecule?
A: 1.19 mg/mg

Q: And the Estimated solubility ([5]; in TPGS, 65° C.)?
A: 0.6012 mg/mg

Q: With `COc1cc(/C=C/C(=O)CC(=O)/C=C/c2ccc(O)c(OC)c2)ccc1O` [Curcumin] as the molecule, how does the IC50 ([1]; DU-145 sensitive) read?
A: 7.2 ± 0.4 µM

Q: What about the IC50 ([2]; PC-3 resistance) of the same molecule?
A: 7.7 ± 0.1 µM

Q: What about the “Concentration with anticancer effects” value (cancer cells) of the same molecule?
A: 5 to 30 µM

Q: And the IC50 ([3]; DU-145 resistance)?
A: 10 ± 0.5 µM

Q: What about the “IC50 higher in resistant DU145 than in sensitive DU145” value ([3]; resistant vs sensitive DU145) of the same molecule?
A: 1.4 fold

Q: And the IC50 ([4]; PC-3 sensitive)?
A: 7.9 ± 0.3 µM

Q: And the “Solubility (w/w)” value ([5]; in Campriltol 888, 65° C.)?
A: 0.0160 w/w

Q: What about the “Solubility (w/w)” value ([5]; in Gelucire 44/14, 65° C.) of the same molecule?
A: 0.153 w/w

Q: And the “Solubility (w/w)” value ([5]; in Imwitor 491, 65° C.)?
A: 0.0261 w/w

Q: What about the “Solubility (w/w)” value ([5]; in Imwitor 900K, 65° C.) of the same molecule?
A: 0.0512 w/w

Q: And the “Solubility (w/w)” value ([5]; in Imwitor 960, 65° C.)?
A: 0.0488 w/w

Q: What about the “Solubility (w/w)” value ([5]; in Kollisolv MCT70, 65° C.) of the same molecule?
A: 0.0179 w/w

Q: And the “Solubility (w/w)” value ([5]; in Labrafac, 65° C.)?
A: 0.0120 w/w

Q: And the “Solubility (w/w)” value ([5]; in Labrasol, 65° C.)?
A: 0.173 w/w

Q: And the “Solubility (w/w)” value ([5]; in Migloyl 812 N, 65° C.)?
A: 0.0153 w/w

Q: And the “Solubility (w/w)” value ([5]; in Migloyl 829, 65° C.)?
A: 0.0210 w/w

Q: What about the “Solubility (w/w)” value ([5]; in Poloxamer 188, 65° C.) of the same molecule?
A: 0.153 w/w

Q: What about the “Solubility (w/w)” value ([5]; in TPGS, 65° C.) of the same molecule?
A: 0.164 w/w

Q: What about the “Solubility (w/w)” value ([5]; in Tween 20, 65° C.) of the same molecule?
A: 0.166 w/w

Q: What about the “Solubility (w/w)” value ([5]; in Tween 80, 65° C.) of the same molecule?
A: 0.141 w/w

Q: For `Nc1nc(=O)n([C@@H]2CS[C@H](CO)O2)cc1F` [FTC, emtricitabine], which Bioavailability ([6]; oral) is on record?
A: over 98%

Q: For `COC(=O)N[C@H](C(=O)N[C@@H](Cc1ccccc1)[C@@H](O)CN(Cc1ccc(-c2ccccn2)cc1)NC(=O)[C@@H](NC(=O)OC)C(C)(C)C)C(C)(C)C` [ATV, atazanavir], which Bioavailability ([6]; without food) is on record?
A: about 20%
